From PubChem BioAssay (NCI)
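Each compound was tested at five concentrations against cells in 96-well plates for 48 hours. TGI marks complete inhibition of growth.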

Key:
Test in all cases: growth of human tumour cells (NCI), 48 h
LOX IMVI melanoma = test system: LOX IMVI melanoma
U251 CNS = test system: U251 CNS
MCF7 breast = test system: MCF7 breast
HCT-116 colon = test system: HCT-116 colon
NCI/ADR-RES ovarian = test system: NCI/ADR-RES ovarian
IGROV1 ovarian = test system: IGROV1 ovarian
SK-MEL-5 melanoma = test system: SK-MEL-5 melanoma
ACHN renal = test system: ACHN renal
OVCAR-4 ovarian = test system: OVCAR-4 ovarian
COLO 205 colon = test system: COLO 205 colon
MDA-MB-231 breast = test system: MDA-MB-231 breast
HOP-62 NSCLC = test system: HOP-62 NSCLC
A498 renal = test system: A498 renal
SF-295 CNS = test system: SF-295 CNS
K-562 leukemia = test system: K-562 leukemia
RPMI-8226 leukemia = test system: RPMI-8226 leukemia
DU-145 prostate = test system: DU-145 prostate
MALME-3M melanoma = test system: MALME-3M melanoma
UACC-257 melanoma = test system: UACC-257 melanoma
HS 578T breast = test system: HS 578T breast
OVCAR-8 ovarian = test system: OVCAR-8 ovarian
786-0 renal = test system: 786-0 renal
SF-268 CNS = test system: SF-268 CNS
CAKI-1 renal = test system: CAKI-1 renal
TK-10 renal = test system: TK-10 renal
SNB-75 CNS = test system: SNB-75 CNS
HT29 colon = test system: HT29 colon
PC-3 prostate = test system: PC-3 prostate
KM12 colon = test system: KM12 colon
HOP-92 NSCLC = test system: HOP-92 NSCLC
CCRF-CEM leukemia = test system: CCRF-CEM leukemia
SR leukemia = test system: SR leukemia
NCI-H23 lung = test system: NCI-H23 lung
EKVX NSCLC = test system: EKVX NSCLC
SN12C renal = test system: SN12C renal
T-47D breast = test system: T-47D breast
A549 NSCLC = test system: A549 NSCLC
SW-620 colon = test system: SW-620 colon
MOLT-4 leukemia = test system: MOLT-4 leukemia
RXF 393 renal = test system: RXF 393 renal
SF-539 CNS = test system: SF-539 CNS
UO-31 renal = test system: UO-31 renal
OVCAR-5 ovarian = test system: OVCAR-5 ovarian
SK-MEL-28 melanoma = test system: SK-MEL-28 melanoma
HCC-2998 colon = test system: HCC-2998 colon
NCI-H460 lung = test system: NCI-H460 lung
UACC-62 melanoma = test system: UACC-62 melanoma
MDA-N = test system: MDA-N
MDA-MB-435 = test system: MDA-MB-435
HL-60(TB) leukemia = test system: HL-60(TB) leukemia
NCI-H522 lung = test system: NCI-H522 lung
HCT-15 colon = test system: HCT-15 colon
NCI-H226 lung = test system: NCI-H226 lung
SK-MEL-2 melanoma = test system: SK-MEL-2 melanoma
BT-549 breast = test system: BT-549 breast
OVCAR-3 ovarian = test system: OVCAR-3 ovarian
M14 melanoma = test system: M14 melanoma
SK-OV-3 ovarian = test system: SK-OV-3 ovarian
SNB-19 CNS = test system: SNB-19 CNS

Measured: TGI

CC1(C)NC2C(=O)c3c([nH]c4ccccc34)[C@]3(C)CCC1CC23 (stereo partly specified)
90.8 µM: T-47D breast
not listed: M14 melanoma | SK-OV-3 ovarian | SNB-19 CNS
> 100 µM: all other assays above

CCN(CC)C(=O)Cn1c(C)cc2ccccc21
not listed: A498 renal
> 100 µM: all other assays above

Cc1cc(S(=O)(=O)N=C2N(Cc3ccccc3)CCN2Cc2ccccc2)c(S)cc1Cl
47.4 µM: UO-31 renal
not listed: ACHN renal | SK-MEL-2 melanoma
> 100 µM: all other assays above

CC(C)(C)OC(=O)NC(Cc1ccc(OCc2ccccc2)cn1)C(=O)N1CCCCC1 (stereo unspecified)
47.7 µM: MOLT-4 leukemia
65.3 µM: RXF 393 renal
33.3 µM: COLO 205 colon
71 µM: LOX IMVI melanoma
49 µM: MDA-MB-435
71.4 µM: UO-31 renal
55.2 µM: PC-3 prostate
70.3 µM: SNB-75 CNS
93 µM: SR leukemia
33.9 µM: T-47D breast
58.2 µM: SK-MEL-2 melanoma
82.1 µM: HL-60(TB) leukemia
60.7 µM: BT-549 breast
47.3 µM: UACC-257 melanoma
31 µM: SK-MEL-5 melanoma
59.2 µM: NCI/ADR-RES ovarian
52.7 µM: RPMI-8226 leukemia
not listed: OVCAR-4 ovarian | NCI-H226 lung
> 100 µM: all other assays above

CCOP(C)(=O)C(N)Cc1ccc(OC)c(OC)c1 (stereo unspecified)
not listed: UACC-257 melanoma | KM12 colon | OVCAR-5 ovarian | SK-MEL-2 melanoma
> 100 µM: all other assays above

COC1=C(OC)C(=O)C(Cc2c(C)nc3sc(C)cn23)=C(C)C1=O
39.2 µM: RPMI-8226 leukemia
36 µM: COLO 205 colon
35.7 µM: HOP-62 NSCLC | SF-268 CNS
29.8 µM: HL-60(TB) leukemia
40.6 µM: HT29 colon
32.8 µM: M14 melanoma | OVCAR-8 ovarian
68.3 µM: PC-3 prostate
39.7 µM: U251 CNS
48 µM: DU-145 prostate
36.7 µM: NCI/ADR-RES ovarian
38.9 µM: SK-OV-3 ovarian
92.9 µM: HCC-2998 colon
70.6 µM: NCI-H522 lung
29.9 µM: SK-MEL-28 melanoma
> 100 µM: A498 renal | T-47D breast
49.5 µM: A549 NSCLC
32.2 µM: IGROV1 ovarian
53.7 µM: CCRF-CEM leukemia
42.4 µM: RXF 393 renal
23.1 µM: OVCAR-4 ovarian
33.6 µM: MDA-MB-435
36.5 µM: SNB-19 CNS
28.6 µM: SK-MEL-5 melanoma
43.7 µM: SF-295 CNS
43.1 µM: SR leukemia
35.6 µM: TK-10 renal | OVCAR-3 ovarian
35.1 µM: EKVX NSCLC
34.7 µM: SK-MEL-2 melanoma
51.6 µM: SW-620 colon
31.2 µM: BT-549 breast
37.3 µM: MALME-3M melanoma
27.4 µM: UACC-62 melanoma
40.7 µM: OVCAR-5 ovarian
37.4 µM: CAKI-1 renal
96.4 µM: HCT-15 colon
30.2 µM: MDA-MB-231 breast
30 µM: ACHN renal
4.23 µM: MOLT-4 leukemia
39.4 µM: LOX IMVI melanoma | 786-0 renal
49.9 µM: HCT-116 colon
39 µM: K-562 leukemia
54.3 µM: NCI-H460 lung
32.4 µM: SF-539 CNS | MDA-N
59.9 µM: MCF7 breast
37.2 µM: NCI-H23 lung
31.6 µM: UO-31 renal
55.5 µM: KM12 colon
67.1 µM: HS 578T breast
31 µM: SN12C renal
26.1 µM: UACC-257 melanoma

NP(=O)(Oc1c2occc2cc2ccc(=O)oc12)N(CCCl)CCCl (stereo unspecified)
not listed: SNB-75 CNS | SK-OV-3 ovarian
> 100 µM: all other assays above
